Values quoted from earlier work as cited in patent US9084671B2, “Methods of forming a micronized peptide coated stent” (ABBOTT CARDIOVASCULAR SYSTEMS INC., priority 2002, dated 2015).

Details: stated as a property of the highly cationic guanidinium peptide; no method given

**Q.** Which pKa does the source give for heptaarginine [heptamer of L-arginine] here?
**A.** The pKa was 13.2.
